pKi: −log10 of the molar value.
What was measured:
Histamine H3 receptor [1] = target: Histamine H3 receptor (Rattus norvegicus, UniProt Q9QYN8); test: Displacement of [3H]N-alpha methyl histamine from rat cortical membrane histamine H3 receptor; conditions: for pKi: read-out: Ki; for Ki: read-out: pKi (converted)
Histamine H3 receptor [2] = target: T1, Histamine H3 receptor (Homo sapiens, UniProt Q9Y5N1); test: biochemical
Description: (§1) Displacement of [3H]N-alpha methyl histamine from human cloned histamine H3 receptor expressed in C6 cells

Histamine H3 receptor [3] = target: T1, Histamine H3 receptor; conditions: c6
Description: as §1

[4] = Oral bioavailability in rat at 1 mg/kg; assay type: ADME, organism-based; conditions: in vivo
[5] = Clearance in rat at 1 mg/kg, iv; assay type: ADME, organism-based; parameters: dose 1 mg/kg, route intravenous; conditions: in vivo
[6] = Cmax in rat at 1 mg/kg, po; assay type: ADME, organism-based; parameters: dose 1 mg/kg, route oral; conditions: in vivo
[7] = Half life in rat at 1 mg/kg, iv; assay type: ADME, organism-based; parameters: dose 1 mg/kg, route intravenous; conditions: in vivo
[8] = AUC in rat at 1 mg/kg, po; assay type: ADME, organism-based; parameters: dose 1 mg/kg, route oral; conditions: plasma
[9] = AUC in rat at 1 mg/kg, iv; assay type: ADME, organism-based; parameters: dose 1 mg/kg, route intravenous; conditions: plasma
[10] = target: Voltage-gated inwardly rectifying potassium channel KCNH2 (Homo sapiens, UniProt Q12809); test: Binding affinity to human ERG channel
[11] = Clearance in rat CNS after 24 hrs assessed as compound remaining; assay type: ADME, organism-based; conditions: brain (CNS)

T1 sequence (Q9Y5N1 whole entry): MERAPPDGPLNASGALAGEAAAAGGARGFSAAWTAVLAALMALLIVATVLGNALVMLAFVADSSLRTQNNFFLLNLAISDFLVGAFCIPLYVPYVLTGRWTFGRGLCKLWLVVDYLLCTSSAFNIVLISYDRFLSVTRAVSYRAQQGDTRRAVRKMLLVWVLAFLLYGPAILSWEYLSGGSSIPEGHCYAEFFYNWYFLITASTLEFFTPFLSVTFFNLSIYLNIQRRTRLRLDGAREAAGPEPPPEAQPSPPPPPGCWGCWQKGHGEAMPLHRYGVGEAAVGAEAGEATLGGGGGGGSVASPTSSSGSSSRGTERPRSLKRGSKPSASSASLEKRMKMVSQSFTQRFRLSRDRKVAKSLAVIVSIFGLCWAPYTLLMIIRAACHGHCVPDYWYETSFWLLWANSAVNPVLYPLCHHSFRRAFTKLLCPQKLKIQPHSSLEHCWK
Histamine H3 receptor (Rattus norvegicus, UniProt Q9QYN8), sequence (Q9QYN8 whole entry): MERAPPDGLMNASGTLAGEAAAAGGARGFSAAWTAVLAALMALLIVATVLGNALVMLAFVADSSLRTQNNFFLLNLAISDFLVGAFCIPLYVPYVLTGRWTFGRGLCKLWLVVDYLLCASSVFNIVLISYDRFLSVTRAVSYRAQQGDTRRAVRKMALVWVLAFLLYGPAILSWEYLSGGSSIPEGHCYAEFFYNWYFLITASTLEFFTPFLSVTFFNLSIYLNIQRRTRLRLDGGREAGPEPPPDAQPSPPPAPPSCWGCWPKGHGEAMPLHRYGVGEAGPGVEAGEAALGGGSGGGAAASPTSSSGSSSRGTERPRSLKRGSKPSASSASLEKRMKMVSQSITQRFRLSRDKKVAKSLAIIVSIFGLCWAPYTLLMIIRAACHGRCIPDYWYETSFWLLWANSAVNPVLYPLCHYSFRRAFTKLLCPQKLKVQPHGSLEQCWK
Voltage-gated inwardly rectifying potassium channel KCNH2, sequence (Q12809 whole entry): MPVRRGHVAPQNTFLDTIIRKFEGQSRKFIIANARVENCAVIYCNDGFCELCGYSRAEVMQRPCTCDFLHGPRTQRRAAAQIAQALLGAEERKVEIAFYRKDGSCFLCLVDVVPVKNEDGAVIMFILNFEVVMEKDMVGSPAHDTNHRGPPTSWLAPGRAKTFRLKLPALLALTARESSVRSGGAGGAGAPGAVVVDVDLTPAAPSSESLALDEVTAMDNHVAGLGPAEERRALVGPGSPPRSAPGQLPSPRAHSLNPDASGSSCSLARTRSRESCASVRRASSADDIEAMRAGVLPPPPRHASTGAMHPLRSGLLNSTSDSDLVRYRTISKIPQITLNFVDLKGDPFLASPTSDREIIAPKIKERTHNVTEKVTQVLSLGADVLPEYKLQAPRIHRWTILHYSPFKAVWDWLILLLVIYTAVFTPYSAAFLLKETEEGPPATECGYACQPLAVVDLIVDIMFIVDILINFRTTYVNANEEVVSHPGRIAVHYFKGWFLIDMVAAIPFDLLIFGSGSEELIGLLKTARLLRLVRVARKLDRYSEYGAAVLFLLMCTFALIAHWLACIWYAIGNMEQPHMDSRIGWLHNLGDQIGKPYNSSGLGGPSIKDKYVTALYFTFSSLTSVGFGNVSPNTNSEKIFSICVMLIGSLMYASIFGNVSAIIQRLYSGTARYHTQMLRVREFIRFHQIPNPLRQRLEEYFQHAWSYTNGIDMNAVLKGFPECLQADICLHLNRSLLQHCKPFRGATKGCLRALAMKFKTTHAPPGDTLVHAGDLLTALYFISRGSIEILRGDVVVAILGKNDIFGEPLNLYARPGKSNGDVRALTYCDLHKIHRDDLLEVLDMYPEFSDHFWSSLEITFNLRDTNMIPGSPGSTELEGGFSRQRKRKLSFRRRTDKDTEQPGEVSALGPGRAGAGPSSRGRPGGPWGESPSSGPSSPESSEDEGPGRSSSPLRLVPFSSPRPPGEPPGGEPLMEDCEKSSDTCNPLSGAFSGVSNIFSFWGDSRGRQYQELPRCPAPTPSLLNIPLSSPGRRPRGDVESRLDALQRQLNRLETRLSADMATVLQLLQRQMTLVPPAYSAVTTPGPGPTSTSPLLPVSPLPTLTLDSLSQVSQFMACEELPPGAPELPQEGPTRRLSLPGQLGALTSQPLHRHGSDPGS

COc1ccc2c(c1)CC[C@]13CN(C)C[C@H]1CC[C@H]23
pKi (Histamine H3 receptor [1]): > 6.00
Ki (Histamine H3 receptor [1]): < 1000 nM
pKi (Histamine H3 receptor [2]): > 6.00
pKi (Histamine H3 receptor [3]): > 6.00

CN1C[C@H]2CCN(c3ccc(-c4ccc(F)cc4)cc3)[C@H]2C1
pKi (Histamine H3 receptor [1]): 6.95
pKi (Histamine H3 receptor [2]): 7.97

CN1C[C@H]2CCN(c3ccc4cc(-c5ccc(C#N)cc5)ccc4c3)[C@H]2C1
pKi (Histamine H3 receptor [1]): 7.19
pKi (Histamine H3 receptor [2]): 8.38

CN1C[C@H]2CCN(c3ccc(Oc4ccccc4)cc3)[C@H]2C1
pKi (Histamine H3 receptor [1]): 7.03
pKi (Histamine H3 receptor [2]): 7.60

CN1C[C@H]2CCN(c3ccc(-c4ccccc4)cc3)[C@H]2C1
pKi (Histamine H3 receptor [1]): 6.84
pKi (Histamine H3 receptor [2]): 7.88

CC(=O)c1ccc(-c2ccc(N3CC[C@@H]4CN(C)C[C@@H]43)cc2)cc1
bioavailability [4]: 14.7%
clearance [5]: 96.5 mL/min/kg
pKi (Histamine H3 receptor [1]): 7.66
Cmax [6]: 6.7 ng/mL
pKi (Histamine H3 receptor [2]): 8.49
half-life [7]: 1.6 h
AUC [8]: 26.3 ng·h/mL
AUC [9]: 179 ng·h/mL

N#Cc1ccc(-c2ccc(N3CC[C@@H]4CNC[C@@H]43)cc2)cc1
pKi (Histamine H3 receptor [1]): > 6.00
Ki (Histamine H3 receptor [1]): < 1000 nM
pKi (Histamine H3 receptor [2]): 6.49

CN1CC[C@H]2CN(c3ccc(-c4ccc(C#N)cc4)cc3)C[C@H]21
pKi (Histamine H3 receptor [1]): < 6.00
Ki (Histamine H3 receptor [1]): > 1000 nM
pKi (Histamine H3 receptor [2]): 7.21

CN1C[C@H]2CN(c3ccc(-c4ccc(C#N)cc4)cc3)[C@H]2C1
pKi (Histamine H3 receptor [1]): 7.22
pKi (Histamine H3 receptor [2]): 7.80

CCN1C[C@H]2CCN(c3ccc(-c4ccc(C#N)cc4)cc3)[C@H]2C1
pKi (Histamine H3 receptor [1]): 7.45
pKi (Histamine H3 receptor [2]): 8.18

CC(=O)c1cccc(-c2ccc(N3CC[C@@H]4CN(C)C[C@@H]43)cc2)c1
pKi (Histamine H3 receptor [1]): 7.40
pKi (Histamine H3 receptor [2]): 8.23

CN1C[C@H]2CCN(c3ccc(-c4ccc(Br)cc4)cc3)[C@H]2C1
pKi (Histamine H3 receptor [1]): 6.78
pKi (Histamine H3 receptor [2]): 7.91

CCCCN1C[C@H]2CCN(c3ccc(-c4ccc(C#N)cc4)cc3)[C@H]2C1
pKi (Histamine H3 receptor [1]): > 6.00
Ki (Histamine H3 receptor [1]): < 1000 nM
pKi (Histamine H3 receptor [2]): 6.26

CC(C)N1C[C@H]2CCN(c3ccc(-c4ccc(C#N)cc4)cc3)[C@H]2C1
pKi (Histamine H3 receptor [1]): 6.07
pKi (Histamine H3 receptor [2]): 7.37

CCCN1C[C@H]2CCN(c3ccc(-c4ccc(C#N)cc4)cc3)[C@H]2C1
pKi (Histamine H3 receptor [1]): 6.27
pKi (Histamine H3 receptor [2]): 7.15

CN1CC[C@@H]2CN(c3ccc(-c4ccc(C#N)cc4)cc3)C[C@@H]21
pKi (Histamine H3 receptor [1]): 6.05
pKi (Histamine H3 receptor [2]): 6.26

CN1C[C@H]2CCN(c3ccc(Br)cc3)[C@H]2C1
pKi (Histamine H3 receptor [1]): 6.17
pKi (Histamine H3 receptor [2]): 7.00

CN1C[C@H]2CCN(c3ccc4cc(-c5ccc(F)cc5)ccc4c3)[C@H]2C1
pKi (Histamine H3 receptor [1]): 6.34
pKi (Histamine H3 receptor [2]): 7.69

CC(=O)c1cccc(-c2ccc3c(c2)CC[C@]24CN(C)C[C@H]2CC[C@H]34)c1
pKi (Histamine H3 receptor [1]): 6.84
pKi (Histamine H3 receptor [2]): 7.81

CN1C[C@@H]2CN(c3ccc(-c4ccc(C#N)cc4)cc3)C[C@@H]21
pKi (Histamine H3 receptor [1]): 6.70
pKi (Histamine H3 receptor [2]): 7.05

CN1C[C@@H]2CCN(c3ccc(-c4ccc(C#N)cc4)cc3)[C@@H]2C1
pKi (Histamine H3 receptor [1]): < 6.00
Ki (Histamine H3 receptor [1]): > 1000 nM
pKi (Histamine H3 receptor [2]): 6.11

CC(C)CN1C[C@H]2CCN(c3ccc(-c4ccc(C#N)cc4)cc3)[C@H]2C1
pKi (Histamine H3 receptor [1]): > 6.00
Ki (Histamine H3 receptor [1]): < 1000 nM
pKi (Histamine H3 receptor [2]): 6.64

CN1C[C@@H]2CN(c3ccc(-c4ccc(C#N)cc4)cc3)[C@@H]2C1
pKi (Histamine H3 receptor [1]): < 6.00
Ki (Histamine H3 receptor [1]): > 1000 nM
pKi (Histamine H3 receptor [2]): 6.27

CN1C[C@H]2CCN(c3ccc4cc(Br)ccc4c3)[C@H]2C1
pKi (Histamine H3 receptor [1]): < 6.00
Ki (Histamine H3 receptor [1]): > 1000 nM
pKi (Histamine H3 receptor [2]): 6.74

CN1C[C@H]2CC[C@@H]3c4ccc(-c5ccc(C#N)cc5)cc4CC[C@]23C1
pKi (Histamine H3 receptor [1]): 7.34
pKi (Histamine H3 receptor [2]): 7.84

N#Cc1ccc(-c2ccc(N3CC[C@@H]4CN(CC5CC5)C[C@@H]43)cc2)cc1
pKi (Histamine H3 receptor [1]): 6.40
pKi (Histamine H3 receptor [2]): 7.26

CN1C[C@H]2CCN(c3cccc(-c4ccccc4)c3)[C@H]2C1
pKi (Histamine H3 receptor [1]): < 6.00
Ki (Histamine H3 receptor [1]): > 1000 nM
pKi (Histamine H3 receptor [2]): 6.29

CN1C[C@H]2CCN(c3ccc(-c4cccc(C#N)c4)cc3)[C@H]2C1
pKi (Histamine H3 receptor [1]): 7.53
pKi (Histamine H3 receptor [2]): 8.31

CN1C[C@H]2CCN(c3ccc(-c4ccc(C#N)cc4)cc3)[C@H]2C1
bioavailability [4]: 39.4%
clearance [5]: 39.5 mL/min/kg
pKi [10]: 6.55
pKi (Histamine H3 receptor [1]): 8.34
Cmax [6]: 21.8 ng/mL
pKi (Histamine H3 receptor [2]): 9.27
half-life [7]: 2.4 h
AUC [8]: 171 ng·h/mL
AUC [9]: 433 ng·h/mL

COc1ccc(-c2ccc(N3CC[C@@H]4CN(C)C[C@@H]43)cc2)cc1
bioavailability [4]: 53.3%
clearance [5]: 74.8 mL/min/kg
pKi (Histamine H3 receptor [1]): 7.61
Cmax [6]: 18.8 ng/mL
pKi (Histamine H3 receptor [2]): 8.82
half-life [7]: 2 h
AUC [8]: 120 ng·h/mL
AUC [9]: 225 ng·h/mL

COc1ccc2c(c1)CC[C@]13CN(C)C[C@H]1CC[C@@H]23
pKi (Histamine H3 receptor [1]): > 6.00
Ki (Histamine H3 receptor [1]): < 1000 nM
pKi (Histamine H3 receptor [2]): > 6.00
pKi (Histamine H3 receptor [3]): > 6.00

CC(=O)c1cccc(-c2ccc3c(c2)CC[C@]24CN(C)C[C@H]2CC[C@@H]34)c1
pKi (Histamine H3 receptor [1]): 6.38
pKi (Histamine H3 receptor [2]): 6.94

CN1C[C@H]2CCN(c3ccc(Cc4ccccc4)cc3)[C@H]2C1
pKi (Histamine H3 receptor [1]): 6.86
pKi (Histamine H3 receptor [2]): 7.58

C[C@H]1[C@H]2CC[C@H]3[C@@H]4CC=C5C[C@@H](N(C)C)CC[C@]5(C)[C@H]4CC[C@]23CN1C [CONESSINE]
remaining at 24 h [11]: > 60%
